From patent publication EP4744680A1, “TARGETED CHEMICAL DRUG AND PREPARATION METHOD THEREFOR, PHARMACEUTICAL COMPOSITION, AND USE OF TARGETED CHEMICAL DRUG” (Bai Yao Zhi Da (Beijing) Nanobio Technology Co., Ltd., priority 2023, dated 2025)

What was measured:
[1] = Body weight in the comparative N87 study; format: in vivo, mouse (BALB/c-nu); details: 0.12mg i.v. (tail vein) once weekly for 6 weeks
[2] = Body weight in the A549 study of the Example 3 drug; format: in vivo, mouse (BALB/c-nu)
Description: Body weight is measured twice per week.Data are recorded and changes analyzed.

N87 gastric cancer = test: In vivo antitumor efficacy in an N87 gastric cancer mouse model (drug of Example 5); design: species or system mouse (BALB/c nude); details: 0.12mg i.v. (tail vein) once every 5 days, 5 administrations
Description: • 1. Cell culture and preparation: Thaw cells and seed into the corresponding medium (RPMI-1640 basal medium + 10% FBS + 1% penicillin/streptomycin [P/S]).
• a) Discard the culture medium and gently rinse the cells with PBS twice. • b) Add an appropriate volume of 0.25% trypsin, digest in a 37 °C incubator for about 1-2 min until cells visibly round up; then add complete medium (RPMI-1640 + 10% FBS + 1% P/S) to neutralize the trypsin.Gently pipette to detach cells and subculture at the desired split ratio. • c) Split ratio: 1: 2-1: 4; the split ratio used in this experiment is 1: 3. • d) Passage frequency: Every 2-3 days, depending on seeding density and growth.
• a) Harvest cells in logarithmic growth phase (~80-90% confluence recommended); • b) After trypsinization, add complete medium to terminate digestion; collect the suspension into centrifuge tubes and centrifuge at 1, 000 rpm for 5 min; • c) Wash the cell pellet twice with pre-chilled PBS and centrifuge each time; • d) Resuspend the pellet in PBS or serum-free medium to a final concentration of 2 × 10^7 cells/mL.
• Injection site: Subcutaneous, right axillary-dorsal region. • Inoculum: 3 × 10^6 cells/mouse; 30 mice inoculated. • Injection volume: 0.1 mL. • Method: Tumor cell inoculation.
Thaw and expand N87 cells to the required quantity; adjust the cell concentration to 3 × 10^7 cells/mL with sterile PBS and keep on ice until use. Using a single-use sterile 1 mL syringe, draw 0.1 mL of the cell suspension and inject subcutaneously into the right axillary-dorsal region of each mouse. The day of inoculation is designated Day 0 (D0).
• a)lmmediately before injection, thoroughly disperse the tumor cell suspension by pipetting to prevent cell clumping, which can reduce viability; • b)Restrain the mouse by grasping the dorsal neck skin with the thumb and forefinger while holding the tail with the little finger; • c)Using a disposable 1 mL syringe, inject the suspension subcutaneously; advance the needle slightly deeper under the skin (approximately 1 cm) to minimize leakage of the suspension from the needle tract;
Tumor size is measured three times per week using a vernier caliper. The long diameter (a) and the short diameter (b) are recorded. Tumor volume is calculated as: V=0.5×a×b^2.
RTV is calculated as: RTV = Vt/V0, where V0 is the tumor volume at grouping and initial dosing (D0), and Vt is the tumor volume at each measurement time point.
IRTW (%) = (Wcontrol group−Wtreatment group)/Wcontrol group × 100, [formula] where W denotes tumor weight.IRTW%>60% is considered effective.

A549 lung carcinoma = test: In-vivo efficacy study in the A549 mouse lung carcinoma model (drug of Example 3); design: species or system mouse (BALB/c-nu)
Description: • Species/strain: BALB/c nude (BALB/c-nu) • Age: 6-7 weeks • Sex: Male • Body weight: 16-18 g
The day of implantation was designated as Day 0 (D0).When the tumor volume reached approximately 100.0 mm^3 (D5), animals with poor tumor take were excluded, the remaining animals were randomized by tumor volume, and dosing commenced on the day of randomization. 2).Dosing regimen: Table 31
Tumor size is measured twice per week using a vernier caliper. The long diameter (a) and short diameter (b) are recorded. Tumor volume is calculated as: V=0.5×a×b^2.
RTV = Vt /V0 , [formula] where V0 is the tumor volume at grouping/first dosing (D0), and Vt is the tumor volume at each measurement time point.

[3] = end of the study (D32 or D25), targeted drug: high- and medium-dose

COc1cccc2c1C(=O)c1c(O)c3c(c(O)c1C2=O)C[C@@](O)(C(=O)CO)C[C@@H]3O[C@H]1C[C@H](N)[C@@H](O)[C@H](C)O1 [Epirubicin drug substance (API), Epirubicin]
Body-weight difference (g) between Day 41 and Day 6 [1]: 3.29 g
Body-weight difference (g) between Day 32 and Day 5 ([2]; 0.08mg i.v. (tail vein) twice weekly for 5 weeks): 6.3 g
Body-weight difference (g) between Day 32 and Day 5 ([2]; 0.12mg i.v. (tail vein) twice weekly for 5 weeks): 6.1 g
Body-weight difference (g) between Day 32 and Day 5 ([2]; 0.14mg i.v. (tail vein) twice weekly for 5 weeks): 0.2 g
Inhibition rate (%) at different post-inoculation days (N87 gastric cancer; Day 9): 17.5%
Inhibition rate (%) at different post-inoculation days (N87 gastric cancer; Day 11): 3.5%
Inhibition rate (%) at different post-inoculation days (N87 gastric cancer; Day 13): 10.2%
Inhibition rate (%) at different post-inoculation days (N87 gastric cancer; Day 16): 24.1%
Inhibition rate (%) at different post-inoculation days (N87 gastric cancer; Day 18): 32.9%
Inhibition rate (%) at different post-inoculation days (N87 gastric cancer; Day 20): 36.4%
Inhibition rate (%) at different post-inoculation days (N87 gastric cancer; Day 23): 34.6%
Tumor weight (N87 gastric cancer; end of study): 0.1751 ± 0.13 g
IRTW% (N87 gastric cancer; inhibition rate of tumor weight): 71.987%
Tumor growth inhibition rate (TGI, %) at different days post-inoculation (A549 lung carcinoma; Day 8, 0.08mg i.v. (tail vein) twice weekly for 5 weeks): 19.90%
Tumor growth inhibition rate (TGI, %) at different days post-inoculation (A549 lung carcinoma; Day 8, 0.12mg i.v. (tail vein) twice weekly for 5 weeks): 17.42%
Tumor growth inhibition rate (TGI, %) at different days post-inoculation (A549 lung carcinoma; Day 8, 0.14mg i.v. (tail vein) twice weekly for 5 weeks): 17.47%
Tumor growth inhibition rate (TGI, %) at different days post-inoculation (A549 lung carcinoma; Day 11, 0.08mg i.v. (tail vein) twice weekly for 5 weeks): 17.02%
Tumor growth inhibition rate (TGI, %) at different days post-inoculation (A549 lung carcinoma; Day 11, 0.12mg i.v. (tail vein) twice weekly for 5 weeks): 15.55%
Tumor growth inhibition rate (TGI, %) at different days post-inoculation (A549 lung carcinoma; Day 11, 0.14mg i.v. (tail vein) twice weekly for 5 weeks): 28.43%
Tumor growth inhibition rate (TGI, %) at different days post-inoculation (A549 lung carcinoma; Day 14, 0.08mg i.v. (tail vein) twice weekly for 5 weeks): -12.27%
Tumor growth inhibition rate (TGI, %) at different days post-inoculation (A549 lung carcinoma; Day 14, 0.12mg i.v. (tail vein) twice weekly for 5 weeks): -4.64%
Tumor growth inhibition rate (TGI, %) at different days post-inoculation (A549 lung carcinoma; Day 14, 0.14mg i.v. (tail vein) twice weekly for 5 weeks): 6.41%
Tumor growth inhibition rate (TGI, %) at different days post-inoculation (A549 lung carcinoma; Day 17, 0.08mg i.v. (tail vein) twice weekly for 5 weeks): 10.74%
Tumor growth inhibition rate (TGI, %) at different days post-inoculation (A549 lung carcinoma; Day 17, 0.12mg i.v. (tail vein) twice weekly for 5 weeks): 28.37%
Tumor growth inhibition rate (TGI, %) at different days post-inoculation (A549 lung carcinoma; Day 17, 0.14mg i.v. (tail vein) twice weekly for 5 weeks): 31.81%
Tumor growth inhibition rate (TGI, %) at different days post-inoculation (A549 lung carcinoma; Day 22, 0.08mg i.v. (tail vein) twice weekly for 5 weeks): 10.11%
Tumor growth inhibition rate (TGI, %) at different days post-inoculation (A549 lung carcinoma; Day 22, 0.12mg i.v. (tail vein) twice weekly for 5 weeks): 8.93%
Tumor growth inhibition rate (TGI, %) at different days post-inoculation (A549 lung carcinoma; Day 22, 0.14mg i.v. (tail vein) twice weekly for 5 weeks): 12.37%
Tumor growth inhibition rate (TGI, %) at different days post-inoculation (A549 lung carcinoma; Day 25, 0.12mg i.v. (tail vein) twice weekly for 5 weeks): 41.13%
Tumor growth inhibition rate (TGI, %) at different days post-inoculation (A549 lung carcinoma; Day 25, 0.14mg i.v. (tail vein) twice weekly for 5 weeks): 44.37%
Tumor growth inhibition rate (TGI, %) at different days post-inoculation (A549 lung carcinoma; Day 29, 0.08mg i.v. (tail vein) twice weekly for 5 weeks): 2.07%
Tumor growth inhibition rate (TGI, %) at different days post-inoculation (A549 lung carcinoma; Day 29, 0.12mg i.v. (tail vein) twice weekly for 5 weeks): 34.27%
Tumor growth inhibition rate (TGI, %) at different days post-inoculation (A549 lung carcinoma; Day 29, 0.14mg i.v. (tail vein) twice weekly for 5 weeks): 31.80%
Tumor growth inhibition rate (TGI, %) at different days post-inoculation (A549 lung carcinoma; Day 32, 0.08mg i.v. (tail vein) twice weekly for 5 weeks): 13.19%
Tumor growth inhibition rate (TGI, %) at different days post-inoculation (A549 lung carcinoma; Day 32, 0.12mg i.v. (tail vein) twice weekly for 5 weeks): 33.27%
Tumor growth inhibition rate (TGI, %) at different days post-inoculation (A549 lung carcinoma; Day 32, 0.14mg i.v. (tail vein) twice weekly for 5 weeks): 24.63%
T/C (A549 lung carcinoma; [3]): greater than 40%
tumor growth inhibition rate (calculated on the basis of tumor weight and tumor volume) (A549 lung carcinoma; [3]): less than 60%
